The experiment relates to Hepatitis C virus. Briefly: Antiviral activity against Hepatitis C virus genotype 1a expressing neomycin phosphotransferase after 3 days by luciferase reporter gene assay. The class given is functional, organism-based, Hepacivirus hominis. To be noted: subtype 1a, 72 h. For orientation: Reporter assays use an easily measured gene product as a stand-in for the process of interest.

What is called EC50 is the concentration that produces a half-maximal response. `COC(=O)N[C@H](C(=O)N1CCC[C@H]1c1nc2cc(-c3ccc4cc(-c5cnc([C@@H]6C[C@H]7C[C@H]7N6C(=O)[C@@H](NC(=O)OC)C(C)C)[nH]5)ccc4c3)ccc2c(=O)[nH]1)C(C)C` registered an EC50 of 6 pM.

For the compound `COC(=O)N[C@H](C(=O)N1CCC[C@H]1c1ncc(-c2ccc3cc(-c4ccc5c(=O)[nH]c([C@@H]6C[C@@H]7CCCC[C@@H]7N6C(=O)[C@@H](NC(=O)OC)C(C)C)nc5c4)ccc3c2)[nH]1)C(C)C`, the EC50 is 6 pM.

`COC(=O)N[C@H](C(=O)N1CC2(C[C@H]1c1nc3cc(-c4ccc5cc(-c6cnc([C@@H]7C[C@H]8C[C@H]8N7C(=O)[C@@H](NC(=O)OC)C(C)C)[nH]6)ccc5c4)ccc3c(=O)[nH]1)OCCCO2)C(C)C` showed an EC50 of 26 pM. Against the preceding compound, the EC50 is about 4.3-fold higher.

`COC(=O)N[C@H](C(=O)N1CC2(C[C@H]1c1ncc(-c3ccc4cc(-c5ccc6c(=O)[nH]c([C@@H]7C[C@H]8C[C@H]8N7C(=O)[C@@H](NC(=O)OC)C(C)C)nc6c5)ccc4c3)[nH]1)OCCO2)C(C)C` returned an EC50 of 8 pM.

These data come from ChEMBL document CHEMBL3124760, “Inhibitors of NS5A for Treatment of HCV Infection” (ACS Med Chem Lett, 2014).
